The term EC50 denotes the concentration that produces a half-maximal response.

The structures appear in SMILES notation. Several values for one entry are separate records, joined by “and”; a condition that tells them apart may be missing. Identical values can stand only once. Counter-ions that a name gives are not always drawn.

The test deals with T1, recombinant human 5-HT4 receptor (Homo sapiens, UniProt Q13639).
T1 construct: expressed in transfected cells
T1 sequence (Q13639 whole entry): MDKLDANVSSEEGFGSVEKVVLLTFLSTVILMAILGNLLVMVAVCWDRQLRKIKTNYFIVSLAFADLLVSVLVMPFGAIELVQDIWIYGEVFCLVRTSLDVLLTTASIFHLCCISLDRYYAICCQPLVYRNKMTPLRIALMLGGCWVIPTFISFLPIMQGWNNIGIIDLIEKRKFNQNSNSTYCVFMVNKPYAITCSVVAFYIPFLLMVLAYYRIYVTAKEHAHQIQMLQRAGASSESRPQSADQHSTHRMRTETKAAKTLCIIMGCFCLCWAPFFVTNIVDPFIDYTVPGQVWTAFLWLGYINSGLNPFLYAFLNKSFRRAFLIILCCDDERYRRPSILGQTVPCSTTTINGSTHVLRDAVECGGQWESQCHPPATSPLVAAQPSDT
The experiment in a line: Determination of EC50 values for 5-HT4 receptor (CHO cells, pCRE-Luc reporter). The class given is cell-based. Conditions: luciferase reporter, 4 hours incubation, read-out: 5-HT4 receptor agonistic binding in-vitro EC50. The protocol: A stable CHO cell line expressing recombinant human 5-HT4 receptor and pCRE-Luc reporter system was used for cell-based assay. The assay offers a non-radioactive based approach to determine binding of a compound to GPCRs. In this specific assay, the level of intracellular cyclic AMP, which is modulated by activation, or inhibition of the receptor is measured. The recombinant cells harbor luciferase reporter gene under the control of cAMP response element.
The above cells were grown in 96 well clear bottom white plates in Hams F12 medium containing 10% fetal bovine serum (FBS). Prior to the addition of compounds or standard agonist, cells were serum starved overnight. Increasing concentrations of test compounds were added in OptiMEM medium to the cells. The incubation was continued at 37° C. in CO2 incubator for 4 hours. Medium was removed and cells were washed with phosphate buffered saline. The cells were lysed and luciferase activity was measured in a Luminometer. Luminescence units were plotted against the compound concentrations using Graphpad software. EC50 values of the compounds were defined as the concentration required in stimulating the luciferase activity by 50%.
On the technique in general: Reporter assays use an easily measured gene product as a stand-in for the process of interest.
Take `Nc1c(Cl)cc(C(=O)NCC2CCN(CCF)CC2)c2c1CCCO2` [Example 66, 5-Amino-6-chloro-N-{[1-(2-fluoroethyl)-4-piperidinyl]methyl}chroman-8-carboxamide]: the EC50 is 1.1 to 5 nM.

Turning to `COCCCN1CC2C(CNC(=O)c3cc(Cl)c(N)c4ccoc34)C2C1` (stereo not drawn) [Example 63, 4-Amino-5-chloro-N-{[3-(3-methoxypropyl)-3-azabicyclo[3.1.0]hex-6-yl]methyl}benzofuran-7-carboxamide hydrochloride], the EC50 is 5.1 to 10 nM. For the compound `COC(=O)N1CCC(N2CC3C(CNC(=O)c4cc(Cl)c(N)c5c4OCC5)C3C2)CC1` (stereo not drawn) [Example 24, 4-Amino-5-chloro-N-{[3-(1-methoxycarbonylpiperidine-4-yl)-3-azabicyclo[3.1.0]hex-6-yl]methyl}-2,3-dihydrobenzofuran-7-carboxamide L(+)-tartarate], the EC50 is 5.1 to 10 nM.

Consider `CC(C)(F)CN1CCC(CNC(=O)c2cc(Cl)c(N)c3c2OCCC3)CC1` [Example 55, 5-Amino-6-chloro-N-{[1-(2-fluoro-2-methylpropyl)-4-piperidinyl]methyl}chroman-8-carboxamide], for which the EC50 was no more than 1 nM. The figure for `COCCCN1CC2C(CNC(=O)c3cc(Cl)c(N)c4cc(C)oc34)C2C1` (stereo not drawn) [Example 64, 4-Amino-5-chloro-2-methyl-N-{[3-(3-methoxypropyl)-3-azabicyclo[3.1.0]hex-6-yl]methyl}benzofuran-7-carboxamide hydrochloride] is 1.1 to 5 nM; for `Nc1c(Cl)cc(C(=O)NCC2C3CN(CC4(O)CCOCC4)CC23)c2c1CCCO2` (stereo not drawn) [Example 30, 5-Amino-6-chloro-N-{[3-(4-hydroxytetrahydro-2H-pyran-4-ylmethyl)-3-azabicyclo[3.1.0]hex-6-yl]methyl}chroman-8-carboxamide L(+)-tartarate] it is 1.1 to 5 nM; for `Nc1c(Cl)cc(C(=O)NCC2[C@H]3CN(CC4CCOC4)C[C@@H]23)c2c1CCCO2` (stereo partly drawn) [Example 8, (R,S) 5-Amino-6-chloro-N-{[3-(tetrahydro-3-furanylmethyl)-3-azabicyclo[3.1.0]hex-6-yl]methyl}chroman-8-carboxamide] it is no more than 1 nM.

For the compound `Nc1c(Cl)cc(C(=O)NCC2C3CN(C4CCOCC4)CC23)c2c1CCO2` (stereo not drawn) [Example 28, 4-Amino-5-chloro-N-{[3-(tetrahydropyran-4-yl)-3-azabicyclo[3.1.0]hex-6-yl]methyl}-2,3-dihydrobenzofuran-7-carboxamide oxalate], the EC50 lay in the range of 5.1 to 10 nM.

Turning to `Nc1c(Cl)cc(C(=O)NCC2C3CN(CC4(O)CCOCC4)CC23)c2occc12` (stereo not drawn) [Example 32, 4-Amino-5-chloro-N-{[3-(4-hydroxytetrahydro-2H-pyran-4-ylmethyl)-3-azabicyclo[3.1.0]hex-6-yl]methyl}benzofuran-7-carboxamide oxalate], the EC50 was 5.1 to 10 nM.

Take `COCC(C)(C)CN1CC2C(CNC(=O)c3cc(Cl)c(N)c4c3OCCC4)C2C1` (stereo not drawn) [Example 60, 5-Amino-6-chloro-N-{[3-(3-methoxy-2,2-dimethylpropyl)-3-azabicyclo[3.1.0]hex-6-yl]methyl}chroman-8-carboxamide]: the EC50 was ≤ 1 nM and 1.1 to 5 nM. Under `CC(C)(O)CN1CCC(CNC(=O)c2cc(Br)c(N)c3c2OCCC3)CC1` [Example 46, 5-Amino-6-bromo-N-{[1-(2-hydroxy-2-methylpropyl)-4-piperidinyl]methyl}chroman-8-carboxamide L(+)-tartarate] stands no more than 1 nM; under `CC(C)(O)CN1CC2C(CNC(=O)c3cc(Cl)c(N)c4ccoc34)C2C1` (stereo not drawn) [Example 51, 4-Amino-5-chloro-N-{[3-(2-hydroxy-2-methylpropyl)-3-azabicyclo[3.1.0]hex-6-yl]methyl}benzofuran-7-carboxamide L(+)-tartarate], 10.1 to 20 nM.

Turning to `Cc1cc2c(N)c(Cl)cc(C(=O)NCC3CCN(CC(C)(C)CO)CC3)c2o1` [Example 59, 4-Amino-5-chloro-2-methyl-N-{[1-(3-hydroxy-2,2-dimethylpropyl)-4-piperidinyl]methyl}benzofuran-7-carboxamide], the EC50 was no more than 1 nM. The figure for `Nc1c(Br)cc(C(=O)NCC2C3CN(C4CCOCC4)CC23)c2c1CCO2` (stereo not drawn) [Example 29, 4-Amino-5-bromo-N-{[3-(tetrahydropyran-4-yl)-3-azabicyclo[3.1.0]hex-6-yl]methyl}-2,3-dihydrobenzofuran-7-carboxamide oxalate] is 10.1 to 20 nM. Under `Cc1cc2c(N)c(Cl)cc(C(=O)NCC3C4CN(CC(C)(C)O)CC34)c2o1` (stereo not drawn) [Example 54, 4-Amino-5-chloro-2-methyl-N-{[3-(2-hydroxy-2-methylpropyl)-3-azabicyclo[3.1.0]hex-6-yl]methyl}benzofuran-7-carboxamide] stands 5.1 to 10 nM; under `CC(C)(F)CN1CCC(F)(CNC(=O)c2cc(Cl)c(N)c3c2OCCC3)CC1` [Example 57, 5-Amino-6-chloro-N-{[1-(2-fluoro-2-methylpropyl)-4-fluoro-4-piperidinyl]methyl}chroman-8-carboxamide L(+)-tartarate], 5.1 to 10 nM.

With `Nc1c(Cl)cc(C(=O)NCC2(F)CCN(CC3CCOC3)CC2)c2c1CCCO2` (stereo not drawn) [Example 10, 5-Amino-6-chloro-N-{[4-fluoro-1-(tetrahydro-3-furanylmethyl)-4-piperidinyl]methyl}chroman-8-carboxamide], the concentration for a half-maximal effect (EC50) was in the range of 1.1 to 5 nM.

With `CC(C)N1CC2C(CNC(=O)c3cc(Cl)c(N)c4c3OCC4)C2C1` (stereo not drawn) [Example 20, 4-Amino-5-chloro-N-[(3-isopropyl-3-azabicyclo[3.1.0]hex-6-yl)methyl]-2,3-dihydrobenzofuran-7-carboxamide oxalate], the EC50 was in the range of 5.1 to 10 nM. The figure for `Cc1cc2c(N)c(Cl)cc(C(=O)NCC3C4CN(CC5CCOCC5)CC34)c2o1` (stereo not drawn) [Example 18, 4-Amino-5-chloro-2-methyl-N-{[3-(tetrahydro-2H-pyran-4-ylmethyl)-3-azabicyclo[3.1.0]hex-6-yl]methyl}benzofuran-7-carboxamide hydrochloride] is 1.1 to 5 nM. As to `Nc1c(Cl)cc(C(=O)NCC2C3CN(CC4(O)CCOCC4)CC23)c2c1CCO2` (stereo not drawn) [Example 35, 4-Amino-5-chloro-N-{[3-(4-hydroxytetrahydropyran-4-ylmethyl)-3-azabicyclo[3.1.0]hex-6-yl]methyl}-2,3-dihydrobenzofuran-7-carboxamide oxalate], the EC50 is 1.1 to 5 nM.

As to `CC(C)(O)CN1CCC(CNC(=O)c2cc(Cl)c(N)c3c2OCCC3)CC1` [Example 40, 5-Amino-6-chloro-N-{[1-(2-hydroxy-2-methylpropyl)-4-piperidinyl]methyl}chroman-8-carboxamide], the EC50 is no more than 1 nM. The figure for `Nc1c(Cl)cc(C(=O)NCC2C3CN(C4CCOCC4)CC23)c2occc12` (stereo not drawn) [Example 15, 4-Amino-5-chloro-N-{[3-(tetrahydro-2H-pyran-4-yl)-3-azabicyclo[3.1.0]hex-6-yl]methyl}benzofuran-7-carboxamide oxalate] is 10.1 to 20 nM; for `Nc1c(Br)cc(C(=O)NCC2C3CN(CC4CCOCC4)CC23)c2c1CCCO2` (stereo not drawn) [Example 12, 5-Amino-6-bromo-N-{[3-(tetrahydro-2H-pyran-4-ylmethyl)-3-azabicyclo[3.1.0]hex-6-yl]methyl}chroman-8-carboxamide L(+)-tartarate] it is 1.1 to 5 nM; for `Nc1c(Cl)cc(C(=O)NCC2C3CN(CC4CCOCC4)CC23)c2c1CCO2` (stereo not drawn) [Example 26, 4-Amino-5-chloro-N-{[3-(tetrahydropyran-4-ylmethyl)-3-azabicyclo[3.1.0]hex-6-yl]methyl}-2,3-dihydrobenzofuran-7-carboxamide L(+)-tartarate] it is 1.1 to 5 nM. Under `CC(C)(O)CN1CCC(F)(CNC(=O)c2cc(Cl)c(N)c3ccoc23)CC1` [Example 38, 4-Amino-5-chloro-N-{[4-fluoro-1-(2-hydroxy-2-methylpropyl)-4-piperidinyl]methyl}benzofuran-7-carboxamide] stands 5.1 to 10 nM; under `Nc1ccc(C(=O)NCC2C3CN(CC4CCOCC4)CC23)c2c1CCCO2` (stereo not drawn) [Example 7, 5-Amino-N-{[3-(tetrahydro-2H-pyran-4-ylmethyl)-3-azabicyclo[3.1.0]hex-6-yl]methyl}chroman-8-carboxamide L(+)-tartarate], 10.1 to 20 nM. The figure for `COCCCN1CC2C(CNC(=O)c3cc(Br)c(N)c4c3OCC4)C2C1` (stereo not drawn) [Example 65, 4-Amino-5-bromo-N-{[3-(3-methoxypropyl)-3-azabicyclo[3.1.0]hex-6-yl]methyl}-2,3-dihydrobenzofuran-7-carboxamide oxalate] is 10.1 to 20 nM; for `Nc1c(Cl)cc(C(=O)NCC2C3CN(CC4(F)CCOCC4)CC23)c2c1CCCO2` (stereo not drawn) [Example 36, 5-Amino-6-chloro-N-{[3-(4-fluorotetrahydro-2H-pyran-4-ylmethyl)-3-azabicyclo[3.1.0]hex-6-yl]methyl}chroman-8-carboxamide L(+)-tartarate] it is no more than 1 nM. `COCCCN1CC2C(CNC(=O)c3cc(Cl)c(N)c4c3OCC4)C2C1` (stereo not drawn) [Example 62, 4-Amino-5-chloro-N-{[3-(3-methoxypropyl)-3-azabicyclo[3.1.0]hex-6-yl]methyl}-2,3-dihydrobenzofuran-7-carboxamide oxalate]: the EC50 is 1.1 to 5 nM.

Turning to `COC(=O)N1CCC(N2CC3C(CNC(=O)c4cc(Cl)c(N)c5ccoc45)C3C2)CC1` (stereo not drawn) [Example 17, 4-Amino-5-chloro-N-{[3-(1-methoxycarbonylpiperidine-4-yl)-3-azabicyclo[3.1.0]hex-6-yl]methyl}benzofuran-7-carboxamide oxalate], the concentration giving a half-maximal response (EC50) lay within 5.1 to 10 nM.

These data come from US9957257B2, “Amide compounds as 5-HT4 receptor agonists” (SUVEN LIFE SCIENCES LIMITED, priority 2015, dated 2018).
